Test results published in patent US10548994B1, “Control of chronic neuropathic pain and allodynia” (STC.UNM, priority 2013, dated 2020).
Entries after “also recorded” stand apart in the source; their conditions may differ.

Experiments:
[1] = tested on: leukocytes; conditions: prior work; cited from earlier work
[2] = tested on: RAW 264.7 macrophage cells; assay: LPS-induced NO production in RAW 264.7 macrophage cells; format: cell-based, mouse; conditions: NorBIRT 500 ng/ml pre-treatment 1, 2, 4 h; LPS 500 ng/ml 24 h
Description: The ability of NorBIRT to inhibit LPS-induced NO production in RAW 264.7macrophage cells was tested. Cells were pre-treated with NorBIRT (500 ng/ml) for 1, 2, and 4 h then exposed to LPS (500 ng/ml) for 24 h.

[3] = tested on: TNF-α; assay: TNF-α protein (ELISA) in LPS stimulated RAW 264.7 cells; format: cell-based, mouse; conditions: NorBIRT 500 ng/ml 1 h, LPS 500 ng/ml 4 and 24 h
Description: In this experiment, cells were incubated with NorBIRT (500 ng/ml; 1 h) and after treatment with LPS (500 ng/ml; 4 and 24 h) the protein levels of TNF-α was evaluated by ELISA.

[4] = tested on: IL-1β; assay: IL-1β (ELISA) in supernatants and cell lysates of LPS-stimulated RAW 264.7 cells; format: cell-based, mouse; conditions: NorBIRT 500 ng/ml pretreatment, LPS 500 ng/ml
Description: Additionally, RAW 264.7 cells were pretreated with 500 ng/ml of NorBIRT and were stimulated with LPS (500 ng/ml). The levels of IL-1β were measured by ELISA, (A) supernatants and (B) celllysates. […] FIG. 22 illustrates that NorBIRT inhibits LPS-stimulated expression of IL-1β in RAW 264.7 cells.
(§1) Given the intriguing profile of NorBIRT's actions on reversing allodynia, we examined whether NorBIRT additionally altered proinflammatory cytokine levels. […] Intracellular IL-1b requires enzymatic cleavage to produce the mature released form. […] Thus NorBIRT is blocking the release of mature IL-1b. […] So, NorBIRT may additionally have anti-inflammatory properties.

[5] = tested on: IL-10; assay: IL-10 protein (ELISA) in LPS-stimulated RAW 264.7 cells; format: cell-based, mouse; conditions: co-incubation with NorBIRT and LPS 500 ng/ml
Description: Protein levels of Il-10 were evaluated using ELISA.
as §1

[6] = tested on: CCL2; assay: LPS-stimulated CCL2 production in RAW 264.7 cells; format: cell-based, mouse; conditions: NorBIRT 500 ng/ml 1 h; LPS 500 ng/ml 24 h; supernatants and cell lysates
Description: RAW 264.7 cells were also pretreated with NorBIRT (500 ng/ml) for 1 h before being incubated with LPS (500 ng/ml) for 24 h. The culture supernatant was analyzed for CCL2 production in both, supernatants and celllysates.

[7] = tested on: LFA-1; assay: LPS-stimulated LFA-1 protein expression (ELISA, cell lysates) in RAW 264.7 cells; format: cell-based, mouse; conditions: NorBIRT 500 ng/ml 2 and 4 h, LPS 500 ng/ml 24 h
Description: Further, RAW 264.7 cells were pretreated with NorBIRT (500 ng/ml) for 2 and 4 h before being incubated with LPS (500 ng/ml). After 24 h of incubation, LFA-1 was measured in celllysates by ELISA.

[8] = tested on: RAW 264.7 cells; assay: Mouse macrophage cell migration in response to CCL2; format: cell-based; conditions: recombinant mouse CCL2 (2D-100 ng/ml)
Description: Mouse macrophages cell migration in response to CCL2 was assessed with recombinant mouse CCL2 (2D-100 ng/ml) in RAW 264.7 cells. Latrunculin was used as a positive control to inhibit cell migration.

[9] = tested on: RAW 264.7 cells; assay: WST-1 cytotoxicity/viability assay; format: cell-based, mouse; conditions: 50, 100, SOO, and 1000 ng/ml, 24 h
Description: RAW 264.7 cells were treated with NorBIRT for the indicated concentrations (50, 100, SOO, and 1000 ng/ml) for 24 h. Cytotoxicity was analyzed using an WST-1 assay. The WST-1 conversion assay was based on the mitochondrial function of intact cells.

[10] = tested on: rats with sciatic nerve chronic constriction injury (CCI); assay: Sciatic nerve chronic constriction injury (CCI) allodynia, von Frey test; format: in vivo, rat; conditions: for reversal of CCI-induced mechanical allodynia: 10 days after CCI
Excerpt: Glial (astrocytes, microglia, satellite & Schwann) cells are recognized as contributing to the development and maintenance of neuropathic pain [86]. Glia are well-known to serve a number of housekeeping functions for healthy neuronal communication. […] Glia have receptors for and are activated by invading pathogens, neuropeptides and neurotransmitters. Once activated, glia can contribute to persistent pathological pain by responding to and releasing factors that act on both neurons and surrounding glia. Classic immune signals include the pro-inflammatory cytokines, interleukin-1 (IL-1β) and tumor necrosis factor-alpha (TNF-α), and chemokines such as CCL2 [139, 142]. Chronic constriction injury (CCI) is a well-characterized animal model that involves both inflammation and trauma around one sciatic nerve. Loose sciatic nerve ligation of 4 sutures produces allodynia in hind paws of rodents. Allodynia in rodents is often measured by hind paw responses to low threshold mechanical stimuli (von Frey test). Clinically, allodynia is well-documented as a common problem for neuropathic pain patients, and the von Frey test is a highly validated assessment tool for allodynia. Several gene therapy vector approaches for neuropathic pain control are being pursued for directed delivery to the dorsal spinal cord & DRG (the pain compartments) & to specific cell types within those compartments, such as glial cells in the DRG (satellite & Schwann cells) or astrocytes and microglia in the dorsal horn of the spinal cord, with one recent clinical trial underway.
We sought to identify the best vector system, either of the viral-based adeno-associated virus (AAV) or the non-viral DNA-based vector (plasmid DNA; pDNA), to achieve therapeutic pain control when delivered to the spinal subarachnoid space (IT). […] While successful, the viral vectors were short-lived in their effects when one considers clinical neuropathic pain control. […] While continued progress toward designing improved viral vector systems may be worthy of future exploration, the optimal vector identified for long-duration pain control during the current grant period was determined to be free pDNA encoding the IL-10 gene (FIG. 2). Behavioral pain assessment is conducted as previously described. Briefly, rats are placed in a quite, dimly lit room and allowed to habituate to the testing environment for 4 consecutive days, 1 hr/day. Baseline (BL) responses are assessed with a series of graded calibrated filaments (0.4 g-15.0 g) applied to the plantar surface of the hindpaws for 6 sec, which elicits a reliable paw withdrawal response. The pDNA-based vector used in data described here and in ‘Preliminary Data’ contains inverted terminal repeat (ITRs) palindromic nucleotide sequences that are residual components from the original AAV vector and provide additional promoter activity, albeit, somewhat weak.. Therefore ITRs would only serve to augment the transcription driven by the expression cassette. The transcriptional cassette contains the cytomegalovirus enhancer/chicken b-actin promoter (CB-actin promoter), an intronic region, the rat IL-10 gene with a spontaneous point mutation (F129S) and the SV40 polyadenylation signal region.
The animal models used in the experiments of this example extend to the well characterized & widely used model of peripheral neuropathy—sciatic nerve chronic constriction injury which combines both direct trauma plus inflammation to the sciatic nerve. When the peripheral nerves become unhealthy, neuropathic pain often ensues. This model combines both inflammation from loosely tied chromic gut ligatures that leads to a localized inflammation followed by slight constriction. In this model, spinal cord glia are activated, PICs are produced and blocking the actions of glia & PICs prevents and reverses neuropathic pain.
This stimulus elicits a paw withdrawal response. Under normal conditions, rats respond to about 10 g of pressure. […]

[11] = tested on: 111In-leukocytes in lumbosacral spinal canal of CCI rats; assay: SPECT/CT imaging of 111In-labeled leukocyte accumulation in lumbosacral spinal canal; format: in vivo, rat; conditions: NorBIRT injected vs saline
Excerpt: Initially, we determined that peripheral leukocytes accumulate in spinal regions that are necessary for pain signaling. We used a small animal SPECT/CT imaging system (single-photon emission computerized tomography) which was very similar to PET imaging, but which had better resolution. […] Blocking spinal leukocyte accumulation may be a novel therapeutic target promising for future clinical applications.
We next investigated whether peripheral immune cells in addition to spinal glia could participate in ongoing pain changes. First, it was determined whether leukocytes could extravasate into the lumbosacral region during ongoing neuropathy. Peritoneal leukocytes from same-strain donor rats were collected and labeled with a gamma-emitting radio-isotope […] and injected i.v. into either CCI or sham treated rats. Biodistributions were examined using a small animal SPECT/.
We quantified radioactivity—in uCis—in very discrete spinal regions of interest related to incoming sciatic pain information. We determined discrete differences in the levels of uCi activity within specific Lumbar vertebra and from the underlying L4-L6 spinal canal, even the associated intervertebral disc regions. We analyzed the L4-L6 spinal canal

[12] = tested on: rats with sciatic nerve chronic constriction injury (CCI); conditions: IT IL-10 protein 4 hr prior to IT pDNA-IL10; cited from earlier work
[13] = tested on: innate immune cells (macrophage, dendritic cells); conditions: IT IL-10 protein 4 hr prior to IT pDNA-IL10; cited from earlier work
[14] = i.t. 10-fold higher dose of NorBIRT (Example 10)

With `CN1C(=O)N(c2cc(Cl)cc(Cl)c2)C(=O)[C@@]1(C)Cc1ccc(Br)cc1` [BIRT-377, reference compound] as the molecule, how does the “antiproliferative and anti-migratory properties of leukocytes” value [1] read?
The value was “exert antiproliferative and anti-migratory properties”.

What does the source list for `C[C@@]1(Cc2ccc(Br)cc2)C(=O)N(c2cc(Cl)cc(Cl)c2)C(=O)N1CCCCCN` [NorBIRT]?
LPS-induced NO production [2]: inhibits; expression (protein levels) of TNF-α [3]: attenuates; IL-1β release / LPS-stimulated expression (supernatants) [4]: reduced; also recorded: attenuated; also recorded: inhibits; intracellular IL-1β (cell lysates) [4]: substantially increased; IL-10 protein levels / release [5]: increases; also recorded: dose-dependently increased; LPS-stimulated CCL2 production [6]: does not inhibit; LPS-stimulated LFA-1 protein expression [7]: inhibits; macrophage cell migration in response to CCL2 [8]: inhibits; viability of RAW 264.7 cells [9]: does not affect; change in allodynia ([10]; 500 ng i.v. NorBIRT vs saline, 48 and 72 hrs later): significant change; also recorded: reverses; allodynia fully returned ([10]; after i.t. NorBIRT (Example 11)): ≤ 10 days; reversal of 45-day enduring allodynia ([10]; higher dose i.t. NorBIRT on day 45): substantially reversed; reversal of allodynia ([10]; i.t. 5 ng NorBIRT vs saline (Example 10)): very modestly reversed; return of allodynia [10, 14]: ≤ 9 days; reversal of allodynia [10, 14]: substantial reversal; reversal of 10-day CCI-induced bilateral mechanical allodynia ([10]; i.t. NorBIRT vs i.t. vehicle (Example 11)): reversed; time of peak effect after injection ([10]; i.t. NorBIRT, compared to sham controls): four; effect on allodynia ([10]; i.t. higher dose 100 ng vs vehicle (Example 11)): dramatic reversal; effect on allodynia ([10]; i.t. low dose 5 ng vs vehicle (Example 11)): lacking effects; effect on allodynia ([10]; i.v. 5000 ng): attenuated allodynia bilaterally; effect on allodynia ([10]; i.v. 100 000 ng): attenuated allodynia bilaterally; dose-dependent reversal from allodynia ([10]; i.v. low dose, 5 days after injection, vs saline): did not produce; reversal of CCI-induced mechanical allodynia ([10]; i.v. low dose, second experiment): did not reverse; dose-dependent reversal from allodynia ([10]; i.v. low dose, throughout 8 days after injection, vs Sham): does not produce; reversal of CCI-induced mechanical allodynia ([10]; i.v., relatively high doses, first experiment): reverses; leukocyte accumulation (uCi signal) in lumbosacral spinal canal [11]: no signal; antiproliferative and anti-migratory properties of leukocytes [1]: exert antiproliferative and anti-migratory properties

Which “time of return of allodynia” value ([10]; intrathecal IL-1 receptor antagonist) does the source give for “IL-1 receptor antagonist: blocks spinal cord actions of IL1; drug with short half-life” here?
The value was no more than 24 h.

What about the effect on allodynia ([10]; intrathecal, after CCI) of the same molecule?
Its effect on allodynia is “completely abolishes”.

B1: IL-10 protein: IT IL-10 protein (without transgene) (protein, UniProt P22301 19-178, looked up)
Interleukin-10: SPGQGTQSENSCTHFPGNLPNMLRDLRDAFSRVKTFFQMKDQLDNLLLKESLLEDFKGYLGCQALSEMIQFYLEEVMPQAENQDPDIKAHVNSLGENLKTLRLRLRRCHRFLPCENKSKAVEQVKNAFNKLQEKGIYKAMSEFDIFINYIEAYMTMKIRN
With B1 as the molecule, how does the “long duration pain relief after IT pDNA-IL-10” value [12] read?
The value was “prevented”.

And the “cellular enrichment in surrounding CSF after IT pDNA-IL10” value [13]?
The value was “prevented”.
